Laboratory results taken from patent US10874640B2 (GILEAD SCIENCES, INC., priority 2016, dated 2020).

Key:
Hepatic Stability Assay = format: in vitro ADME; design: dose or concentration left out as unconfirmed; details: pooled cryopreserved hepatocytes; read-out: t½
Protocol: The metabolic stability of certain compounds disclosed herein was assessed in vitro in pooled cryopreserved hepatocytes using the in vitro half-life method. Incubations were at 37° C. and final concentrations in the incubations were 1×10^6 cells/mL and […] test concentration of the compound. Aliquots were sequentially removed after 0, 1, 3 and 6 hours and analyzed by LC-MS/MS. In vitro half-life was determined by measuring the rate of disappearance of the compound and then scaled to predicted hepatic clearance using the well-stirred model. […] As such, compounds having a value of 39.5 may have a half live that exceeds 39.5 hours.

[1] = system: HBV AD38 viral particles in HepG2 cell line overexpressing NTCP; experiment: HBV DNA Quantification Assay; format: cell-based; details: Hepatitis B virus, HepG2, 120 h, HBV AD38-infected HepG2-NTCP cells, 5 days incubation, HBV DNA in culture supernatant (QuantiGene 2.0); geometric mean of a minimum of four determinations
Protocol: A HepG2 cell line overexpressing the HBV virus attachment receptor sodium-taurocholate cotransporting polypeptide (NTCP) was grown to confluency in DMEM growth medium, Dulbecco's Modified Eagle Medium without sodium pyruvate (Life Technologies, Rockville, Md.) supplemented with 10% FBS (Thermo Scientific, Waltham, Md.), 1% penicillin/streptomycin (Life Technologies, Rockville, Md.) and 2 mM L-glutamine (Life Technologies, Rockville, Md.) in T175 flasks. Cells were infected with HBV AD38 viral particles (Texcell, Frederick, USA) at 4000 genome equivalents per cell. […] The assay plates were incubated for a period of 5 days and the antiviral activity of the test compounds were assayed by detecting the presence of HBV DNA in the culture supernatant using the QuantiGene™ 2.0 nucleic acid quantification kit (Affymetrix, Santa Clara, Calif.).
The culture supernatant was harvested and treated with lysis buffer containing Proteinase K (Affymetrix, Santa Clara, Calif.). […] After the final wash step, the alkaline phosphatase substrate (Luminol APS5) was added and the resulting luminescence signal was read in an EnVision Multilabel Plate Reader (PerkinElmer, Santa Clara, Calif.). […]

SMILES | half-life (Hepatic Stability Assay) | EC50 [1]
Cc1c(C(=O)C(=O)N[C@@](C)(C(N)=O)C(F)(F)F)c2n(c1C(=O)Nc1ccc(F)c(F)c1)CCC2 [Example 136] | ≥ 39.5 h | –
Cc1c(C(=O)C(=O)NC2(c3c[nH]nn3)CC(F)(F)C2)c2n(c1C(=O)Nc1ccnc(C(F)F)c1F)[C@@H]1C[C@@H]1C2 [Example 80, (1aR,6aR)-5-(2-((3,3-difluoro-1-(1H-1,2,3-triazol-4-yl)cyclobutyl)amino)-2-oxoacetyl)-N-(2-(difluoromethyl)-3-fluoropyridin-4-yl)-4-methyl-1,1a,6,6a-tetrahydrocyclopropa[b]pyrrolizine-3-carboxamide] | – | 8.7 nM
Cc1c(C(=O)C(=O)NC2(C)CS(=O)(=O)C2)c2n(c1C(=O)Nc1ccc(F)c(C#N)c1)[C@@H]1C[C@@H]1C2 [Example 72, (1aR,6aR)—N-(3-cyano-4-fluorophenyl)-4-methyl-5-(2-((3-methyl-1,1-dioxidothietan-3-yl)amino)-2-oxoacetyl)-1,1a,6,6a-tetrahydrocyclopropa[b]pyrrolizine-3-carboxamide] | ≥ 39.5 h | –
Cc1c(C(=O)C(=O)NC2(c3c[nH]nn3)CC2)c2n(c1C(=O)Nc1ccc(F)cc1)CCC2 [Example 70, 7-(2-((1-(1H-1,2,3-triazol-4-yl)cyclopropyl)amino)-2-oxoacetyl)-N-(4-fluorophenyl)-6-methyl-2,3-dihydro-1H-pyrrolizine-5-carboxamide] | ≥ 39.5 h | –
Cc1c(C(=O)C(=O)NC2(c3c[nH]nn3)CC2)c2n(c1C(=O)Nc1ccnc(C(F)F)c1)[C@@H]1C[C@@H]1C2 [Example 56, (1aR,6aR)-5-(2-((1-(1H-1,2,3-triazol-4-yl)cyclopropyl)amino)-2-oxoacetyl)-N-(2-(difluoromethyl)pyridin-4-yl)-4-methyl-1,1a,6,6a-tetrahydrocyclopropa[b]pyrrolizine-3-carboxamide] | ≥ 39.5 h | –

Further lines, with some results ahead:

half-life (Hepatic Stability Assay) | SMILES | EC50 [1]
≥ 39.5 h | CNC(=O)C1(NC(=O)C(=O)c2c(C)c(C(=O)Nc3ccc(F)c(C#N)c3)n3c2CCC3)CC(F)(F)C1 [Example 35, N-(3-cyano-4-fluorophenyl)-7-(2-((3,3-difluoro-1-(methylcarbamoyl)cyclobutyl)amino)-2-oxoacetyl)-6-methyl-2,3-dihydro-1H-pyrrolizine-5-carboxamide] | –
≥ 39.5 h | CNC(=O)C1(NC(=O)C(=O)c2c(C)c(C(=O)Nc3cccc(C(F)F)c3)n3c2CCC3)CC(F)(F)C1 [Example 115, 7-(2-((3,3-difluoro-1-(methylcarbamoyl)cyclobutyl)amino)-2-oxoacetyl)-N-(3-(difluoromethyl)phenyl)-6-methyl-2,3-dihydro-1H-pyrrolizine-5-carboxamide] | –
≥ 39.5 h | CNC(=O)C1(NC(=O)C(=O)c2c(C)c(C(=O)Nc3ccc(F)c(F)c3)n3c2CCC3)CC(F)(F)C1 [Example 44, 7-(2-((3,3-difluoro-1-(methylcarbamoyl)cyclobutyl)amino)-2-oxoacetyl)-N-(3,4-difluorophenyl)-6-methyl-2,3-dihydro-1H-pyrrolizine-5-carboxamide] | –
≥ 39.5 h | CNC(=O)C1(NC(=O)C(=O)c2c(C)c(C(=O)Nc3ccc(F)cc3)n3c2CCC3)CC(F)(F)C1 [Example 47, 7-(2-((3,3-difluoro-1-(methylcarbamoyl)cyclobutyl)amino)-2-oxoacetyl)-N-(4-fluorophenyl)-6-methyl-2,3-dihydro-1H-pyrrolizine-5-carboxamide] | –
≥ 39.5 h | CNC(=O)C1(NC(=O)C(=O)c2c(C)c(C(=O)Nc3ccc(F)c(F)c3)n3c2C[C@@H](F)C3)CC(F)(F)C1 [Example 49, (R)-7-(2-((3,3-difluoro-1-(methylcarbamoyl)cyclobutyl)amino)-2-oxoacetyl)-N-(3,4-difluorophenyl)-2-fluoro-6-methyl-2,3-dihydro-1H-pyrrolizine-5-carboxamide] | –
≥ 39.5 h | CNC(=O)C1(NC(=O)C(=O)c2c(C)c(C(=O)Nc3ccc(F)c(C(F)F)c3)n3c2CCC3)CC(F)(F)C1 [Example 116, 7-(2-((3,3-difluoro-1-(methylcarbamoyl)cyclobutyl)amino)-2-oxoacetyl)-N-(3-(difluoromethyl)-4-fluorophenyl)-6-methyl-2,3-dihydro-1H-pyrrolizine-5-carboxamide] | –
≥ 39.5 h | Cc1c(C(=O)C(=O)N[C@](C)(C(N)=O)C(F)(F)F)c2n(c1C(=O)Nc1ccc(F)c(F)c1)CCC2 [Example 135] | –
